Reference: US9113629B2, “4-amino-6-(4-substituted-phenyl)-picolinates and 6-amino-2-(4-substituted-phenyl)-pyrimidine-4-carboxylates and their use as herbicides” (DOW AGROSCIENCES LLC, priority 2013, dated 2015)
Read-outs that look alike come from different tables or passages of the source.

Legend:
[1] = tested on: Key Grass and Sedge Weeds as well as Grass Crops; test: Post-emergent Test II herbicidal activity (Table 6); type: in vivo; details: post-emergence, 336 h; for pest or weed control at 70 g/ha: application rate 70 g ai/ha; for pest or weed control at 140 g/ha: application rate 140 g ai/ha
Experimental: (§1) Post-emergent Test II: Seeds or nutlets of the desired test plant species were planted in Sun Gro Metro-Mix® 360 planting mixture, which typically has a pH of 6.0 to 6.8 and an organic matter content of about 30 percent, in plastic pots with a surface area of 64 square centimeters. When required to ensure good germination and healthy plants, a fungicide treatment and/or other chemical or physical treatment was applied. The plants were grown for 7-21 d in a greenhouse with an approximate 15 h photoperiod which was maintained at about 23-29° C. during the day and 22-28° C. during the night. Nutrients and water were added on a regular basis and supplemental lighting was provided with overhead metal halide 1000-Watt lamps as necessary. The plants were employed for testing when they reached the first or second true leaf stage.
(§2) A weighed amount, determined by the highest rate to be tested, of each test compound was placed in a 25 mL glass vial and was dissolved in 4 mL of a 97:3 v/v mixture of acetone and DMSO to obtain concentrated stock solutions. […] The concentrated stock solutions obtained were diluted with 20 mL of an aqueous mixture containing acetone, water, isopropyl alcohol, DMSO. Atplus 411F crop oil concentrate, and Triton® X-155 surfactant in a 48.5:39:10:1.5:1.0:0.02 v/v ratio to obtain spray solutions containing the highest application rates. Additional application rates were obtained by serial dilution of 12 mL of the high rate solution into a solution containing 2 mL of 97:3 v/v mixture of acetone and DMSO and 10 mL of an aqueous mixture containing acetone, water, isopropyl alcohol, DMSO, Atplus 411F crop oil concentrate, and Triton X-155 surfactant in a 48.5:39:10:1.5:1.0:0.02 v/v ratio to obtain ½×, ¼×, ⅛× and 1/16× rates of the high rate. Compound requirements are based upon a 12 mL application volume at a rate of 187 liters per hectare (L/ha). Formulated compounds were applied to the plant material with an overhead Mandel track sprayer equipped with 8002E nozzles calibrated to deliver 187 L/ha over an application area of 0.503 square meters at a spray height of 18 inches (43 cm) above the average plant canopy height. Control plants were sprayed in the same manner with the solvent blank.
(§3) The treated plants and control plants were placed in a greenhouse as described above and watered by subirrigation to prevent wash-off of the test compounds. After 14 d, the condition of the test plants as compared with that of the untreated plants was determined visually and scored on a scale of 0 to 100 percent where 0 corresponds to no injury and 100 corresponds to complete kill.

[2] = tested on: Key Broadleaf Weed and Crop Species; test: Post-emergent Test II herbicidal activity (Table 5); type: in vivo; details: post-emergence, 336 h, 14 days after application
Experimental: as §1, §2, §3

[3] = Triticum aestivum, TRZSS (wheat), read-out: Visual Growth Reduction (%) 14 Days After Application, TRZSS
[4] = CYPES: yellow nutsedge (Cyperus esculentus), read-out: Visual Growth Reduction (%) 14 Days After Application, CYPES
[5] = DIGSA: crabgrass (Digitaria sanguinalis), read-out: Visual Growth Reduction (%) 14 Days After Application, DIGSA
[6] = ORYSA: rice (Oryza sativa), read-out: Visual Growth Reduction (%) 14 Days After Application, ORYSA
[7] = SETFA: giant foxtail (Setaria faberi), read-out: Visual Growth Reduction (%) 14 Days After Application, SETFA
[8] = SORVU: grain sorghum (Sorghum vulgare), read-out: Visual Growth Reduction (%) 14 Days After Application, SORVU
[9] = ZEAMX: maize, corn (Zea mays), read-out: Visual Growth Reduction (%) 14 Days After Application, ZEAMX

Compound	pest or weed control at 70 g/ha [1, 3] [%]	pest or weed control at 140 g/ha [1, 3] [%]	pest or weed control at 70 g/ha [1, 4] [%]	pest or weed control at 140 g/ha [1, 4] [%]	pest or weed control at 70 g/ha [1, 5] [%]	pest or weed control at 140 g/ha [1, 5] [%]	pest or weed control at 70 g/ha [1, 6] [%]	pest or weed control at 140 g/ha [1, 6] [%]	pest or weed control at 70 g/ha [1, 7] [%]	pest or weed control at 140 g/ha [1, 7] [%]	pest or weed control at 70 g/ha [1, 8] [%]	pest or weed control at 140 g/ha [1, 8] [%]	pest or weed control at 70 g/ha [1, 9] [%]	pest or weed control at 140 g/ha [1, 9] [%]	further results
COC(=O)c1nc(-c2cccc(F)c2)c(F)c(N)c1Cl [Compound 183]	0 to 29	0 to 29	0 to 29	0 to 29	0 to 29	0 to 29	0 to 29	0 to 29	0 to 29	0 to 29	30 to 44	45 to 59	0 to 29	0 to 29	pest or weed control at 70 g/ha ([2]; ABUTH: velvetleaf (Abutilon theophrasti), application rate 70 g ai/ha, read-out: Visual Growth Reduction (%) 14 Days After Application, ABUTH): 75 to 84%; pest or weed control at 140 g/ha ([2]; ABUTH: velvetleaf (Abutilon theophrasti), application rate 140 g ai/ha, read-out: Visual Growth Reduction (%) 14 Days After Application, ABUTH): 95 to 100%; pest or weed control at 70 g/ha ([2]; AMARE: redroot pigweed (Amaranthus retroflexus), application rate 70 g ai/ha, read-out: Visual Growth Reduction (%) 14 Days After Application, AMARE): 95 to 100%; pest or weed control at 140 g/ha ([2]; AMARE: redroot pigweed (Amaranthus retroflexus), application rate 140 g ai/ha, read-out: Visual Growth Reduction (%) 14 Days After Application, AMARE): 95 to 100%; pest or weed control at 70 g/ha ([2]; BRSNN: oilseed-rape, canola (Brassica napus), application rate 70 g ai/ha, read-out: Visual Growth Reduction (%) 14 Days After Application, BRSNN): 60 to 74%; pest or weed control at 140 g/ha ([2]; BRSNN: oilseed-rape, canola (Brassica napus), application rate 140 g ai/ha, read-out: Visual Growth Reduction (%) 14 Days After Application, BRSNN): 85 to 94%; pest or weed control at 70 g/ha ([2]; CHEAL: lambsquarters (Chenopodium album), application rate 70 g ai/ha, read-out: Visual Growth Reduction (%) 14 Days After Application, CHEAL): 95 to 100%; pest or weed control at 140 g/ha ([2]; CHEAL: lambsquarters (Chenopodium album), application rate 140 g ai/ha, read-out: Visual Growth Reduction (%) 14 Days After Application, CHEAL): 95 to 100%; pest or weed control at 70 g/ha ([2]; EPHHL: wild poinsettia (Euphorbia heterophylla), application rate 70 g ai/ha, read-out: Visual Growth Reduction (%) 14 Days After Application, EPHHL): 95 to 100%; pest or weed control at 140 g/ha ([2]; EPHHL: wild poinsettia (Euphorbia heterophylla), application rate 140 g ai/ha, read-out: Visual Growth Reduction (%) 14 Days After Application, EPHHL): 95 to 100%; pest or weed control at 70 g/ha ([2]; HELAN: sunflower (Helianthus annuus), application rate 70 g ai/ha, read-out: Visual Growth Reduction (%) 14 Days After Application, HELAN): 85 to 94%; pest or weed control at 140 g/ha ([2]; HELAN: sunflower (Helianthus annuus), application rate 140 g ai/ha, read-out: Visual Growth Reduction (%) 14 Days After Application, HELAN): 85 to 94%; pest or weed control at 70 g/ha ([2]; VIOTR: wild pansy (Viola tricolor), application rate 70 g ai/ha, read-out: Visual Growth Reduction (%) 14 Days After Application, VIOTR): 0 to 29%; pest or weed control at 140 g/ha ([2]; VIOTR: wild pansy (Viola tricolor), application rate 140 g ai/ha, read-out: Visual Growth Reduction (%) 14 Days After Application, VIOTR): 0 to 29%
COC(=O)c1nc(-c2cc(F)ccc2F)c(F)c(N)c1Cl [Compound 189]	0 to 29	0 to 29	0 to 29	0 to 29	0 to 29	0 to 29	0 to 29	0 to 29	0 to 29	0 to 29	0 to 29	0 to 29	0 to 29	0 to 29	pest or weed control at 70 g/ha ([2]; ABUTH: velvetleaf (Abutilon theophrasti), 70 g ai/ha, post-emergent, read-out: Visual Growth Reduction (%) 14 Days After Application ABUTH): 75 to 84%; pest or weed control at 140 g/ha ([2]; ABUTH: velvetleaf (Abutilon theophrasti), 140 g ai/ha, post-emergent, read-out: Visual Growth Reduction (%) 14 Days After Application ABUTH): 75 to 84%; pest or weed control at 70 g/ha ([2]; AMARE: redroot pigweed (Amaranthus retroflexus), 70 g ai/ha, post-emergent, read-out: Visual Growth Reduction (%) 14 Days After Application AMARE): 95 to 100%; pest or weed control at 140 g/ha ([2]; AMARE: redroot pigweed (Amaranthus retroflexus), 140 g ai/ha, post-emergent, read-out: Visual Growth Reduction (%) 14 Days After Application AMARE): 95 to 100%; pest or weed control at 70 g/ha ([2]; BRSNN: oilseed-rape, canola (Brassica napus), 70 g ai/ha, post-emergent, read-out: Visual Growth Reduction (%) 14 Days After Application BRSNN): 45 to 59%; pest or weed control at 140 g/ha ([2]; BRSNN: oilseed-rape, canola (Brassica napus), 140 g ai/ha, post-emergent, read-out: Visual Growth Reduction (%) 14 Days After Application BRSNN): 60 to 74%; pest or weed control at 70 g/ha ([2]; CHEAL: lambsquarters (Chenopodium album), 70 g ai/ha, post-emergent, read-out: Visual Growth Reduction (%) 14 Days After Application CHEAL): 85 to 94%; pest or weed control at 140 g/ha ([2]; CHEAL: lambsquarters (Chenopodium album), 140 g ai/ha, post-emergent, read-out: Visual Growth Reduction (%) 14 Days After Application CHEAL): 85 to 94%; pest or weed control at 70 g/ha ([2]; EPHHL: wild poinsettia (Euphorbia heterophylla), 70 g ai/ha, post-emergent, read-out: Visual Growth Reduction (%) 14 Days After Application EPHHL): 0 to 29%; pest or weed control at 140 g/ha ([2]; EPHHL: wild poinsettia (Euphorbia heterophylla), 140 g ai/ha, post-emergent, read-out: Visual Growth Reduction (%) 14 Days After Application EPHHL): 0 to 29%; pest or weed control at 70 g/ha ([2]; HELAN: sunflower (Helianthus annuus), 70 g ai/ha, post-emergent, read-out: Visual Growth Reduction (%) 14 Days After Application HELAN): 85 to 94%; pest or weed control at 140 g/ha ([2]; HELAN: sunflower (Helianthus annuus), 140 g ai/ha, post-emergent, read-out: Visual Growth Reduction (%) 14 Days After Application HELAN): 85 to 94%; pest or weed control at 140 g/ha ([2]; VIOTR: wild pansy (Viola tricolor), 140 g ai/ha, post-emergent, read-out: Visual Growth Reduction (%) 14 Days After Application VIOTR): 0 to 29%
